Results: patent US11203563B2, “Preparation of zinc linolenate, and application of zinc linolenate in preparing anti-helicobacter pylori drug” (NANJING MEDICAL UNIVERSITY, priority 2018, dated 2021)

Tests used:
Experiment in all cases: MIC by microdilution method, non-Helicobacter pylori bacteria
Type in all cases: cell-based
Design in all cases: key: +: Bacterial growth; −: No bacterial growth
Settings in all cases: 72 h
[1] = tested on: Neisseria gonorrhoeae (ATCC19424)
Protocol: (§1) 2.2 Detection of minimum inhibitory concentration (MIC, 100 µL system) of zinc linolenate for non-Helicobacter pylori bacteria by microdilution method
(§2) (1) Zinc linolenate (2 mg/mL) is prepared.
(§3) (3) Bacterial solution preparation: the non-Helicobacter pylori grown in a log phase on a solid plate is taken to make a bacterial suspension with a BHI culture medium, the absorbance (OD600) is adjusted to 0.3 (1×10^8 CFU/mL), and the bacterial suspension is diluted 100 times to 1×10^6 CFU/mL for use.
(§4) (4) Inoculation of bacterial solution: 10 μL of bacterial solution above is taken and added to the 1-8th wells (the concentration of the bacterial solution per well is about 1.0×10^5 CFU/mL). Culture is performed for 72 h to judge the result. The drug concentrations of the first-seventh wells are 128, 64, 32, 16, 8, 4, and 2 μg/mL, respectively.
(§5) The experiment only makes sense when the bacteria obviously grow in the 8th well, i.e. the positive control well (without antibiotics). When a single drift occurs in the microdilution method, the maximum drug concentration that inhibits bacterial growth should be recorded. If there are multiple drifts, the results should not be reported and the experiment should be repeated. The experiment is repeated 3 times for each drug.

[2] = tested on: Escherichia coli (MG1655)
Protocol: as §1, §2, §3, §4, §5

[3] = tested on: Proteus mirabilis (YF163006)
Protocol: as §1, §2, §3, §4, §5

[4] = tested on: Klebsiella pneumoniae (YF173002)
Protocol: as §1, §2, §3, §4, §5

[5] = tested on: Haemophilus influenzae (ATCC49766)
Protocol: as §1, §2, §3, §4, §5

[6] = tested on: Candida albicans
Protocol: as §1, §2, §3, §4, §5

[7] = tested on: Enterococcus faecium (ATCC19434)
Protocol: as §1, §2, §3, §4, §5

[8] = tested on: Morganella morganii
Protocol: as §1, §2, §3, §4, §5

[9] = tested on: Staphylococcus aureus (ATCC6538)
Protocol: as §1, §2, §3, §4, §5

[10] = tested on: Shigella dysenteriae
Protocol: as §1, §2, §3, §4, §5

[11] = tested on: Moraxella catarrhalis (ATCC25238)
Protocol: as §1, §2, §3, §4, §5

[12] = tested on: Bacillus subtilis (168)
Protocol: as §1, §2, §3, §4, §5

[13] = tested on: Salmonella typhi (14028s)
Protocol: as §1, §2, §3, §4, §5

[14] = tested on: Lactobacillus
Protocol: as §1, §2, §3, §4, §5

Q: `CC/C=C\C/C=C\C/C=C\CCCCCCCC(=O)[O-].CC/C=C\C/C=C\C/C=C\CCCCCCCC(=O)[O-].[Zn+2]` [zinc linolenate] was tested. Which Bacterial growth ([1]; zinc linolenate 2 μg/ml) did it give?
A: +

Q: What about the Bacterial growth ([1]; zinc linolenate 4 μg/ml) of the same compound?
A: +

Q: What about the Bacterial growth ([1]; zinc linolenate 8 μg/ml) of the same compound?
A: +

Q: What about the Bacterial growth ([1]; zinc linolenate 16 μg/ml) of the same compound?
A: +

Q: What about the Bacterial growth ([1]; zinc linolenate 32 μg/ml) of the same compound?
A: +

Q: And the Bacterial growth ([1]; zinc linolenate 64 μg/ml)?
A: +

Q: And the Bacterial growth ([1]; zinc linolenate 128 μg/ml)?
A: +

Q: What about the Bacterial growth ([2]; zinc linolenate 2 μg/ml) of the same compound?
A: +

Q: What about the Bacterial growth ([2]; zinc linolenate 4 μg/ml) of the same compound?
A: +

Q: What about the Bacterial growth ([2]; zinc linolenate 8 μg/ml) of the same compound?
A: +

Q: And the Bacterial growth ([2]; zinc linolenate 16 μg/ml)?
A: +

Q: What about the Bacterial growth ([2]; zinc linolenate 32 μg/ml) of the same compound?
A: +

Q: And the Bacterial growth ([2]; zinc linolenate 64 μg/ml)?
A: +

Q: And the Bacterial growth ([2]; zinc linolenate 128 μg/ml)?
A: −

Q: What about the Bacterial growth ([3]; zinc linolenate 2 μg/ml) of the same compound?
A: +

Q: What about the Bacterial growth ([3]; zinc linolenate 4 μg/ml) of the same compound?
A: +

Q: And the Bacterial growth ([3]; zinc linolenate 8 μg/ml)?
A: +

Q: And the Bacterial growth ([3]; zinc linolenate 16 μg/ml)?
A: +

Q: And the Bacterial growth ([3]; zinc linolenate 32 μg/ml)?
A: +

Q: And the Bacterial growth ([3]; zinc linolenate 64 μg/ml)?
A: +

Q: And the Bacterial growth ([3]; zinc linolenate 128 μg/ml)?
A: +

Q: And the Bacterial growth ([4]; zinc linolenate 2 μg/ml)?
A: +

Q: What about the Bacterial growth ([4]; zinc linolenate 4 μg/ml) of the same compound?
A: +

Q: And the Bacterial growth ([4]; zinc linolenate 8 μg/ml)?
A: +

Q: And the Bacterial growth ([4]; zinc linolenate 16 μg/ml)?
A: +

Q: And the Bacterial growth ([4]; zinc linolenate 32 μg/ml)?
A: +

Q: And the Bacterial growth ([4]; zinc linolenate 64 μg/ml)?
A: +

Q: And the Bacterial growth ([4]; zinc linolenate 128 μg/ml)?
A: −

Q: What about the Bacterial growth ([5]; zinc linolenate 2 μg/ml) of the same compound?
A: +

Q: And the Bacterial growth ([5]; zinc linolenate 4 μg/ml)?
A: +

Q: And the Bacterial growth ([5]; zinc linolenate 8 μg/ml)?
A: +

Q: And the Bacterial growth ([5]; zinc linolenate 16 μg/ml)?
A: +

Q: And the Bacterial growth ([5]; zinc linolenate 32 μg/ml)?
A: +

Q: And the Bacterial growth ([5]; zinc linolenate 64 μg/ml)?
A: +

Q: And the Bacterial growth ([5]; zinc linolenate 128 μg/ml)?
A: +

Q: And the Bacterial growth ([6]; zinc linolenate 2 μg/ml)?
A: +

Q: What about the Bacterial growth ([6]; zinc linolenate 4 μg/ml) of the same compound?
A: +

Q: What about the Bacterial growth ([6]; zinc linolenate 8 μg/ml) of the same compound?
A: +

Q: What about the Bacterial growth ([6]; zinc linolenate 16 μg/ml) of the same compound?
A: +

Q: What about the Bacterial growth ([6]; zinc linolenate 32 μg/ml) of the same compound?
A: +

Q: And the Bacterial growth ([6]; zinc linolenate 64 μg/ml)?
A: +

Q: And the Bacterial growth ([6]; zinc linolenate 128 μg/ml)?
A: +

Q: What about the Bacterial growth ([7]; zinc linolenate 2 μg/ml) of the same compound?
A: +

Q: And the Bacterial growth ([7]; zinc linolenate 4 μg/ml)?
A: +

Q: And the Bacterial growth ([7]; zinc linolenate 8 μg/ml)?
A: +

Q: And the Bacterial growth ([7]; zinc linolenate 16 μg/ml)?
A: +

Q: And the Bacterial growth ([7]; zinc linolenate 32 μg/ml)?
A: +

Q: And the Bacterial growth ([7]; zinc linolenate 64 μg/ml)?
A: +

Q: What about the Bacterial growth ([7]; zinc linolenate 128 μg/ml) of the same compound?
A: +

Q: And the Bacterial growth ([8]; zinc linolenate 2 μg/ml)?
A: +

Q: What about the Bacterial growth ([8]; zinc linolenate 4 μg/ml) of the same compound?
A: +

Q: And the Bacterial growth ([8]; zinc linolenate 8 μg/ml)?
A: +

Q: And the Bacterial growth ([8]; zinc linolenate 16 μg/ml)?
A: +

Q: And the Bacterial growth ([8]; zinc linolenate 32 μg/ml)?
A: +

Q: And the Bacterial growth ([8]; zinc linolenate 64 μg/ml)?
A: +

Q: What about the Bacterial growth ([8]; zinc linolenate 128 μg/ml) of the same compound?
A: −

Q: And the Bacterial growth ([9]; zinc linolenate 2 μg/ml)?
A: +

Q: And the Bacterial growth ([9]; zinc linolenate 4 μg/ml)?
A: +

Q: What about the Bacterial growth ([9]; zinc linolenate 8 μg/ml) of the same compound?
A: +

Q: What about the Bacterial growth ([9]; zinc linolenate 16 μg/ml) of the same compound?
A: +

Q: And the Bacterial growth ([9]; zinc linolenate 32 μg/ml)?
A: +

Q: And the Bacterial growth ([9]; zinc linolenate 64 μg/ml)?
A: +

Q: What about the Bacterial growth ([9]; zinc linolenate 128 μg/ml) of the same compound?
A: +

Q: And the Bacterial growth ([10]; zinc linolenate 2 μg/ml)?
A: +

Q: And the Bacterial growth ([10]; zinc linolenate 4 μg/ml)?
A: +

Q: What about the Bacterial growth ([10]; zinc linolenate 8 μg/ml) of the same compound?
A: +

Q: What about the Bacterial growth ([10]; zinc linolenate 16 μg/ml) of the same compound?
A: +

Q: What about the Bacterial growth ([10]; zinc linolenate 32 μg/ml) of the same compound?
A: +

Q: What about the Bacterial growth ([10]; zinc linolenate 64 μg/ml) of the same compound?
A: +

Q: And the Bacterial growth ([10]; zinc linolenate 128 μg/ml)?
A: −

Q: What about the Bacterial growth ([11]; zinc linolenate 2 μg/ml) of the same compound?
A: +

Q: And the Bacterial growth ([11]; zinc linolenate 4 μg/ml)?
A: +

Q: What about the Bacterial growth ([11]; zinc linolenate 8 μg/ml) of the same compound?
A: +

Q: And the Bacterial growth ([11]; zinc linolenate 16 μg/ml)?
A: +

Q: And the Bacterial growth ([11]; zinc linolenate 32 μg/ml)?
A: +

Q: What about the Bacterial growth ([11]; zinc linolenate 64 μg/ml) of the same compound?
A: +

Q: And the Bacterial growth ([11]; zinc linolenate 128 μg/ml)?
A: +

Q: What about the Bacterial growth ([12]; zinc linolenate 2 μg/ml) of the same compound?
A: +

Q: And the Bacterial growth ([12]; zinc linolenate 4 μg/ml)?
A: +

Q: What about the Bacterial growth ([12]; zinc linolenate 8 μg/ml) of the same compound?
A: +

Q: What about the Bacterial growth ([12]; zinc linolenate 16 μg/ml) of the same compound?
A: +

Q: And the Bacterial growth ([12]; zinc linolenate 32 μg/ml)?
A: +

Q: What about the Bacterial growth ([12]; zinc linolenate 64 μg/ml) of the same compound?
A: +

Q: And the Bacterial growth ([12]; zinc linolenate 128 μg/ml)?
A: +

Q: And the Bacterial growth ([13]; zinc linolenate 2 μg/ml)?
A: +

Q: And the Bacterial growth ([13]; zinc linolenate 4 μg/ml)?
A: +

Q: What about the Bacterial growth ([13]; zinc linolenate 8 μg/ml) of the same compound?
A: +

Q: And the Bacterial growth ([13]; zinc linolenate 16 μg/ml)?
A: +

Q: What about the Bacterial growth ([13]; zinc linolenate 32 μg/ml) of the same compound?
A: +

Q: What about the Bacterial growth ([13]; zinc linolenate 64 μg/ml) of the same compound?
A: +

Q: What about the Bacterial growth ([13]; zinc linolenate 128 μg/ml) of the same compound?
A: +

Q: And the Bacterial growth ([14]; zinc linolenate 2 μg/ml)?
A: +

Q: And the Bacterial growth ([14]; zinc linolenate 4 μg/ml)?
A: +

Q: What about the Bacterial growth ([14]; zinc linolenate 8 μg/ml) of the same compound?
A: +

Q: And the Bacterial growth ([14]; zinc linolenate 16 μg/ml)?
A: +

Q: What about the Bacterial growth ([14]; zinc linolenate 32 μg/ml) of the same compound?
A: +

Q: What about the Bacterial growth ([14]; zinc linolenate 64 μg/ml) of the same compound?
A: +

Q: And the Bacterial growth ([14]; zinc linolenate 128 μg/ml)?
A: −
